ChEMBL document CHEMBL4706474, “Tetrahydro-2-naphthyl and 2-Indanyl Triazolopyrimidines Targeting Plasmodium falciparum Dihydroorotate Dehydrogenase Display Potent and Selective Antimalarial Activity” (J Med Chem, 2016)
In brackets after ≈: the same amount, converted by molar mass. Activity calls are given as the source filed them. No cut-off for these calls is given here.

Columns and labels:
[1] = target: Dihydroorotate dehydrogenase (quinone), mitochondrial (Homo sapiens, UniProt Q02127); assay: Inhibition of N-terminal His6-tagged human DHODH expressed in Escherichia coli BL21 using L-DHO as substrate and CoQ as co-substrate by DCIP dye based spectrophotometric assay
[2] = Lipophilicity, logD of the compound at pH 7.4; type: physicochemical; settings: buffer
[3] = Unbound AUC (0 to infinity) in Sprague-Dawley rat at 17.5 mg/kg, po measured over 24 hrs by LC-MS analysis; type: ADME, organism-based; settings: in vivo
[4] = Protein binding in Sprague-Dawley rat plasma at […], iv administered as infusion for 10 mins by LC-MS analysis; type: ADME, organism-based; settings: dose 1.6 mg/kg, read-out: PPB (converted)
[5] = Unbound volume of distribution at steady state in Sprague-Dawley rat at […], iv administered as infusion for 10 mins by LC-MS analysis; type: ADME, organism-based; settings: in vivo, dose 1.6 mg/kg
[6] = Volume of distribution at steady state in Sprague-Dawley rat at […], iv administered as infusion for 10 mins by LC-MS analysis; type: ADME, organism-based; settings: in vivo, dose 1.6 mg/kg
[7] = Inhibition of N-terminal His6-tagged Plasmodium falciparum DHODH expressed in Escherichia coli BL21 using L-DHO as substrate and CoQ as co-substrate by DCIP dye based spectrophotometric assay
Plasmodium falciparum [8] = assay: Antimalarial activity against chloroquine, quinine, mefloquine, pyrimethamine, cycloguanil and sulfadoxine resistant Plasmodium falciparum Dd2; type: functional, organism-based
Cytochrome P450 2C8 = target: T1, Cytochrome P450 2C8 (Homo sapiens, UniProt P10632); assay: Inhibition of CYP2C8 in human liver microsomes using isoform-specific probe substrates in presence of NADPH-generating system by LC-MS analysis; type: ADME
T1 sequence (P10632 whole entry): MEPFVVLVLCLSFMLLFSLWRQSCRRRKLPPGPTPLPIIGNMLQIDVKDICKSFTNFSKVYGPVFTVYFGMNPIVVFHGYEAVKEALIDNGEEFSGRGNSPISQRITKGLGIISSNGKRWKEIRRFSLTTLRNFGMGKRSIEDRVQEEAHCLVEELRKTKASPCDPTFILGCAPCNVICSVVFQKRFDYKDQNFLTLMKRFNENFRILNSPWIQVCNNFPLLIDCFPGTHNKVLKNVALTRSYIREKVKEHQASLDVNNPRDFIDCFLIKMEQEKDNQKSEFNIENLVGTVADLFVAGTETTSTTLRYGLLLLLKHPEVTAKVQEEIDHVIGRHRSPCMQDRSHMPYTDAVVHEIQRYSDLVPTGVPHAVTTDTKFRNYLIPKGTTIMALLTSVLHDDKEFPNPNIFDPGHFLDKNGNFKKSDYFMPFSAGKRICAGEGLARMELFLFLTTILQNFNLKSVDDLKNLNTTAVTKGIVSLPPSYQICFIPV

[9] = Inhibition of N-terminal His6-tagged dog DHODH expressed in Escherichia coli BL21 using L-DHO as substrate and CoQ as co-substrate by DCIP dye based spectrophotometric assay; set-up: species or system Canis lupus familiaris
[10] = Protein binding in mouse plasma assessed as bound fraction by LC-MS analysis based ultracentrifugation assay; type: ADME, cell-free; settings: read-out: PPB (converted)
[11] = Unbound AUC (0 to infinity) in Sprague-Dawley rat at […], iv by LC-MS analysis; type: ADME, organism-based; settings: in vivo, dose 1.6 mg/kg
[12] = Cmax in Swiss mouse at 20 mg/kg, po administered as single dose via gavage measured over 24 hrs by LC-MS analysis; type: ADME, organism-based; set-up: route oral, dose 20 mg/kg, time >24; settings: in vivo
[13] = Solubility of compound in FeSSIF at pH 5 measured after 5 to 6 hrs by HPLC-UV based analysis; type: physicochemical; settings: simulated gi fluid, time 5-6 hrs
[14] = Unbound AUC (0 to infinity) in Swiss mouse at 20 mg/kg, po administered as single dose via gavage measured over 24 hrs by LC-MS analysis; type: ADME, organism-based; settings: in vivo
[15] = Intrinsic clearance in human pooled liver microsomes assessed per mg protein at 1 uM by LC-MS analysis; type: ADME, Microsome; settings: microsomes, 1 µM
Plasmodium falciparum [16] = assay: Antimalarial activity against pyrimethamine resistant Plasmodium falciparum HB3; type: functional, organism-based
[17] = target: Voltage-gated inwardly rectifying potassium channel KCNH2 (Homo sapiens, UniProt Q12809)
Description: Inhibition of human ERG by patch clamp electrophysiology assay

[18] = Tmax in Swiss mouse at 20 mg/kg, po administered as single dose via gavage measured over 24 hrs by LC-MS analysis; type: ADME, organism-based; settings: in vivo
[19] = Oral bioavailability in Sprague-Dawley rat at 17.5 mg/kg measured over 24 hrs by LC-MS analysis; type: ADME, organism-based; settings: in vivo
[20] = Unbound clearance in Sprague-Dawley rat at […], iv administered as infusion for 10 mins by LC-MS analysis; type: ADME, organism-based; settings: in vivo, dose 1.6 mg/kg
[21] = AUC (0 to infinity) in Sprague-Dawley rat at […], iv administered as infusion for 10 mins by LC-MS analysis; type: ADME, organism-based; set-up: route intravenous, time 10 min, dose 1.6 mg/kg; settings: in vivo
[22] = Unbound Cmax in Sprague-Dawley rat at 17.5 mg/kg, po measured over 24 hrs by LC-MS analysis; type: ADME, organism-based; settings: in vivo
[23] = Apparent half-life in rat Sprague-Dawley at […], iv administered as infusion for 10 mins by LC-MS analysis; type: ADME, organism-based; settings: in vivo, dose 1.6 mg/kg
[24] = Protein binding in Sprague-Dawley rat plasma at 1.8 mg/kg, iv administered as infusion for 10 mins by LC-MS analysis; type: ADME, organism-based; settings: read-out: PPB (converted)
[25] = Unbound volume of distribution at steady state Sprague-Dawley in rat at 1.8 mg/kg, iv administered as infusion for 10 mins by LC-MS analysis; type: ADME, organism-based; settings: in vivo
[26] = AUC (0 to infinity) in Sprague-Dawley rat at 1.8 mg/kg, iv administered as infusion for 10 mins by LC-MS analysis; type: ADME, organism-based; set-up: route intravenous, time 10 min, dose 1.8 mg/kg; settings: in vivo
[27] = Unbound AUC (0 to infinity) in Sprague-Dawley rat at 21.3 mg/kg, po measured over 24 hrs by LC-MS analysis; type: ADME, organism-based; settings: in vivo
[28] = Apparent half-life in Sprague-Dawley rat at 1.8 mg/kg, iv administered as infusion for 10 mins by LC-MS analysis; type: ADME, organism-based; settings: in vivo, read-out: t1/2(app) (converted)
[29] = Solubility of compound in FeSSIF at pH 5.8 measured after 5 to 6 hrs by HPLC-UV based analysis; type: physicochemical; settings: simulated gi fluid, time 5-6 hrs
[30] = Oral bioavailability in Sprague-Dawley rat at 21.3 mg/kg measured over 24 hrs by LC-MS analysis; type: ADME, organism-based; settings: in vivo
[31] = Unbound AUC (0 to infinity) in Sprague-Dawley rat at 1.8 mg/kg, iv by LC-MS analysis; type: ADME, organism-based; settings: in vivo
[32] = AUC (0 to infinity) in Sprague-Dawley rat at 21.3 mg/kg, po measured over 24 hrs by LC-MS analysis; type: ADME, organism-based; set-up: route oral, dose 21.3 mg/kg, time >24; settings: in vivo
[33] = Volume of distribution at steady state in Sprague-Dawley rat at 1.8 mg/kg, iv administered as infusion for 10 mins by LC-MS analysis; type: ADME, organism-based; settings: in vivo
[34] = Unbound Cmax in Sprague-Dawley rat at 21.3 mg/kg, po measured over 24 hrs by LC-MS analysis; type: ADME, organism-based; settings: in vivo
[35] = Unbound clearance in Sprague-Dawley rat at 1.8 mg/kg, iv administered as infusion for 10 mins by LC-MS analysis; type: ADME, organism-based; settings: in vivo

Sequence of Dihydroorotate dehydrogenase (quinone), mitochondrial (Q02127 whole entry): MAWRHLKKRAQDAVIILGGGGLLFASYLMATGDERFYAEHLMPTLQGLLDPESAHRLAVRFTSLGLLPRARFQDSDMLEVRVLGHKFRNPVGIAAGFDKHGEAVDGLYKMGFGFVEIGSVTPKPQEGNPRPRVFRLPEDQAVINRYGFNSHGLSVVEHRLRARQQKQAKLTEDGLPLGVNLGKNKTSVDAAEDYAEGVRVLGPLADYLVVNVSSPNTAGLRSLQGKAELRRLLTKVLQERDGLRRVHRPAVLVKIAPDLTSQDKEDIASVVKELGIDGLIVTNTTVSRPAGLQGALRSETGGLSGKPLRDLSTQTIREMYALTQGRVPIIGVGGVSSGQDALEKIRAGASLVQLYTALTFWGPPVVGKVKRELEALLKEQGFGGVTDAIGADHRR
Sequence of Voltage-gated inwardly rectifying potassium channel KCNH2 (Q12809 whole entry): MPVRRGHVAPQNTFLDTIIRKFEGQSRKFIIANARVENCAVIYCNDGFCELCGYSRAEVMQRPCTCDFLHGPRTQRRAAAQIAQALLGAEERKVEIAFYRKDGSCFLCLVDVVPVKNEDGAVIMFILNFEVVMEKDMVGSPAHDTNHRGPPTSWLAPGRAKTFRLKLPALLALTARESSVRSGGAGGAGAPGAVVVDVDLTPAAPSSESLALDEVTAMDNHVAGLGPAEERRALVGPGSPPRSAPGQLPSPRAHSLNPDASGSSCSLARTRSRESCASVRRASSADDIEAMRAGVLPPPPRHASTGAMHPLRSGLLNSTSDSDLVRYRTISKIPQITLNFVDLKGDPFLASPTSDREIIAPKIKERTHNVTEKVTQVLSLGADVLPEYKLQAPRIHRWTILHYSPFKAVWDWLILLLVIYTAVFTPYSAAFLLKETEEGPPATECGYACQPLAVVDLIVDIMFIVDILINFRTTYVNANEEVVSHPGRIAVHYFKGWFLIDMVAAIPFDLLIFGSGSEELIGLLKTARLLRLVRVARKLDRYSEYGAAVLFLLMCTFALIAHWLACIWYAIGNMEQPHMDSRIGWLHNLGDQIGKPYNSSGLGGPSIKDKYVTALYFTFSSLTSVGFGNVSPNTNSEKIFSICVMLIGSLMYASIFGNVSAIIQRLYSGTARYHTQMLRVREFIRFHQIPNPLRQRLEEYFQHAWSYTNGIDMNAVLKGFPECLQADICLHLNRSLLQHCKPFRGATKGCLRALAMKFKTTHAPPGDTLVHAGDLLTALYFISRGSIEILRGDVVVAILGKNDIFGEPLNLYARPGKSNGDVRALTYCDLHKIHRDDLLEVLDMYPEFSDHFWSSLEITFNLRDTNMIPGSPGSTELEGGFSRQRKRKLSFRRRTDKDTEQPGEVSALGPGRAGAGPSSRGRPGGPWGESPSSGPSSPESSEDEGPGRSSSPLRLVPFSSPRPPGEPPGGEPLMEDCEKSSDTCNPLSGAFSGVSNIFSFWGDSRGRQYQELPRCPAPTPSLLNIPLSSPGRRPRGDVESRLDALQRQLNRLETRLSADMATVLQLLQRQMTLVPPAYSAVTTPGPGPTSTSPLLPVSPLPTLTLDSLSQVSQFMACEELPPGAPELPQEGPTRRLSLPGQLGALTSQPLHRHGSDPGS

Which IC50 [1] does the source give for `Cc1cc(N[C@H]2CCc3ccc(Cl)cc3C2)n2nc(C(C)(F)F)nc2n1` here?
Its IC50 is over 100000 nM.

And the logD [2]?
Its logD is 3.9.

And the fAUC [3]?
The fAUC was 0.89 µM·h.

What about the fraction unbound at 10 min [4] of the same compound?
The fraction unbound at 10 min was 0.035.

And the fVdss [5]?
The fVdss was 186 L/kg.

What about the Vdss [6] of the same compound?
Its Vdss is 6.7 L/kg.

And the IC50 [7]?
Its IC50 is 6.3 nM.

What about the Activity (Plasmodium falciparum [8]) of the same compound?
The Activity was “Active”.

What about the IC50 (Cytochrome P450 2C8) of the same compound?
The IC50 was over 20000 nM.

And the IC50 [9]?
The IC50 was over 100000 nM.

And the fraction unbound [10]?
Its fraction unbound is 0.026.

What about the fAUC [11] of the same compound?
The fAUC was 0.12 µM·h.

What about the Cmax [12] of the same compound?
The Cmax was 5 µM.

And the solubility [13]?
Its solubility is 36 µg/mL (≈ 95.3 µM).

What about the fAUC [14] of the same compound?
The fAUC was 0.59 µM·h.

And the microsomal intrinsic clearance [15]?
The microsomal intrinsic clearance was under 7 µL/min.

What about the Activity (Plasmodium falciparum [16]) of the same compound?
Its Activity is “Active”.

What about the IC50 [17] of the same compound?
The IC50 was 1500 nM.

And the Tmax [18]?
The Tmax was 1 h.

What about the bioavailability [19] of the same compound?
Its bioavailability is 67%.

What about the CL free [20] of the same compound?
The CL free was 589 mL/min/kg.

What about the AUC [21] of the same compound?
Its AUC is 3.5 µM·h.

And the fCmax [22]?
Its fCmax is 0.12 µM.

And the “t1/2(app)” value [23]?
The value was 5.9 h.

What does the source list for `Cc1cc(NC2Cc3cc(F)c(F)cc3C2)n2nc(C(C)(F)F)nc2n1`?
IC50 [1]: > 100000 nM; logD [2]: 3.4; fraction unbound at 10 min [24]: 0.058; fVdss [25]: 47 L/kg; AUC(0-inf) [26]: 27.1 µM·h; IC50 [7]: 52 nM; Activity (Plasmodium falciparum [8]): Active; fAUC [27]: 11.7 µM·h; IC50 [9]: > 100000 nM; fraction unbound [10]: 0.047; half-life [28]: 11.2 h; solubility [29]: 65 µg/mL (≈ 178 µM); fAUC [14]: 7.9 µM·h; microsomal intrinsic clearance [15]: < 7 µL/min; bioavailability [30]: 63%; Activity (Plasmodium falciparum [16]): Active; fAUC [31]: 1.57 µM·h; AUC(0-inf) [32]: 202 µM·h; Vdss [33]: 2.7 L/kg; fCmax [34]: 0.72 µM; CL free [35]: 52 mL/min/kg
